The subject of one test is S. aureus. Briefly: Susceptibility testing in liquid media (MIC assay) against S. aureus. Type of test: cell-based. Conditions: 35° C. overnight (16 to 20 hours); for MIC: Staphylococcus aureus. The protocol: (§1) Compounds of this invention were tested for antimicrobial activity by susceptibility testing in liquid media. Such assays were performed within the guidelines of the latest NCCLS document governing such practices: “M7-A5 Methods for dilution Antimicrobial Susceptibility Tests for Bacteria that Grow Aerobically; Approved Standard—Fifth Edition (2000)”. Other publications such as “Antibiotics in Laboratory Medicine” (Edited by V. Lorian, Publishers Williams and Wilkins, 1996) provide essential practical techniques in laboratory antibiotic testing.
(§2) Several discrete bacterial colonies (3 to 7) from a freshly streaked plate were transferred to an appropriate rich broth medium such as MHB, supplemented where appropriate for the more fastidious organisms. This was grown overnight to high density followed by a 1 or 2-thousand-fold dilution to give an inoculation density of between 5×10^5 and 5×10^6 CFU per mL. Alternatively, the freshly picked colonies can be incubated at 37° C. for about 4 to 8 hours until the culture equals or exceeds a turbidity of a 0.5 McFarland standard (approximately 1.5×10^8 cells per mL) and diluted to give the same CFU per mL as above. In a more convenient method, the inoculum was prepared using a commercially available mechanical device (the BBL PROMPT System) that involves touching five colonies directly with a wand, containing crosshatch grooves at its bottom, followed by suspension of the bacteria in an appropriate volume of saline. Dilution to the appropriate inoculum cell density was made from this cell suspension. The broth used for testing consists of MHB supplemented with 50 mg per L of Ca^2+ and 25 mg per L of Mg^2+. Standard dilution panels of control antibiotics were made and stored as in the NCCLS standard M7-A5, the dilution range typically being in the 128 μg per mL to 0.015 μg per mL (by 2-fold serial dilution). The test compounds were dissolved and diluted fresh for experimentation on the same day; the same or similar ranges of concentration as above being used. The test compounds and controls were dispensed into a multiwell plate and test bacteria added such that the final inoculation was approximately 5×10^4 CFU per well and the final volume was 100 μL. The plates were incubated at 35° C. overnight (16 to 20 hours) and checked by eye for turbidity or quantitated with a multiwell plate reader. […] Such determinations were also compared to the appropriate tables contained in the above two publications to ensure that the range of antibacterial activity is within the acceptable range for this standardized assay.
(§3) The compound numbers correspond to the compound numbers in Table 1.

In another test the test system is S. pneumoniae. Briefly: Susceptibility testing in liquid media (MIC assay) against S. pneumoniae. Type of test: cell-based. Conditions: Streptococcus pneumoniae, 35° C. overnight (16 to 20 hours). The protocol: as §1, §2, §3

Values after ≈ are worked out from the molar mass of the structure shown. Some results are limits rather than exact numbers.

As for `CCNC(=O)Nc1nc2cc(-c3cccnc3)cc(C(=O)OC)c2[nH]1` [Compound I-1, 2-(3-Ethyl-ureido)-6-pyridin-3-yl-3H-benzoimidazole-4-carboxylic acid methyl ester], the MIC with S. aureus and against S. pneumoniae was not above 0.5 µg/mL throughout. In the case of `CCNC(=O)Nc1nc2cc(-c3cncnc3)cc(C(=O)OC)c2[nH]1` [Compound I-5], the MIC against S. aureus and against S. pneumoniae was not above 0.5 µg/mL throughout. With “1-(7-Cyclohexanecarbonyl-5-pyridin-3-yl-1H-benzoimidazol-2-yl)-3-ethyl-urea [Compound I-14]”, the “MIC (Activity) against S. aureus” value against S. aureus is recorded as “C (an MIC of greater than 1.0 μg/mL)”. Take `CCCC(=O)c1cc(-c2cccnc2)cc2nc(NC(=O)NCC)[nH]c12` [Compound I-20]: the MIC in the test with S. aureus and in the test with S. pneumoniae was not above 0.5 µg/mL in each case. For `CCNC(=O)Nc1nc2cc(-c3cccnc3)cc(/C(=N/O)C3CCCC3)c2[nH]1` [Compound I-43], the MIC against S. aureus and in the test with S. pneumoniae was not above 0.5 µg/mL each time. As for `CCNC(=O)Nc1nc2cc(-c3cccnc3)cc(C(=O)CN(C)C)c2[nH]1` [Compound I-4], the MIC against S. pneumoniae is more than 1 µg/mL. With `CCNC(=O)Nc1nc2cc(-c3cc(C)n(Cc4ccccn4)c(=O)c3)cc(C(=O)OC)c2[nH]1` [Compound I-32], the MIC with S. aureus and in the test on S. pneumoniae was not above 0.5 µg/mL throughout.

In the test on S. aureus, `CCNC(=O)Nc1nc2cc(-c3cccnc3)cc(C(=O)NC)c2[nH]1` [Compound I-16] yielded an MIC of more than 1 µg/mL. Consider `CCNC(=O)Nc1nc2cc(-c3cccnc3)cc(C(=O)C3CCCCC3)c2[nH]1` [Compound I-11], for which the MIC against S. aureus and against S. pneumoniae was not above 0.5 µg/mL each time.

As for `CCNC(=O)Nc1nc2cc(-c3cccnc3)cc(/C(=N/OCC)C3CC3)c2[nH]1` [Compound I-41], the MIC against S. aureus and in the test on S. pneumoniae was not above 0.5 µg/mL throughout. In the case of `CCOC(=O)Nc1nc2cc(-c3cccnc3)cc(C(=O)CC)c2[nH]1` [Compound I-44, (7-Propionyl-5-pyridin-3-yl-1H-benzoimidazol-2-yl)-carbamic acid ethyl ester], the MIC was more than 1 µg/mL in the test on S. aureus and not above 0.5 µg/mL with S. pneumoniae. For `CCNC(=O)Nc1nc2cc(-c3cccnc3)cc(/C(=N\O)C3CCCC3)c2[nH]1` [Compound I-42], the MIC with S. aureus and with S. pneumoniae was not above 0.5 µg/mL each time.

On to `CCNC(=O)Nc1nc2cc(-c3cccnc3)cc(C(=O)c3nccn3C)c2[nH]1` [Compound I-26], for which the MIC against S. aureus and against S. pneumoniae was not above 0.5 µg/mL in each case. As to `CCNC(=O)Nc1nc2cc(-c3cccnc3)cc(C(=O)C3CC3)c2[nH]1` [Compound I-25], the MIC in the test on S. aureus and with S. pneumoniae was not above 0.5 µg/mL in each case. In the case of `CCNC(=O)Nc1nc2cc(-c3cccnc3)cc(C(=O)NCc3ccccc3)c2[nH]1` [Compound I-17], the results for the MIC in the test with S. aureus and against S. pneumoniae were 0.5 to 1 µg/mL (≈ 1.21 to 2.41 µM) and not above 0.5 µg/mL, respectively.

For the compound `CCNC(=O)Nc1nc2cc(-c3cccnc3)cc(C(=O)C(C)C)c2[nH]1` [Compound I-22], the minimal inhibitory concentration (MIC) in the test on S. aureus and against S. pneumoniae was not above 0.5 µg/mL in each case. Consider `CCNC(=O)Nc1nc2cc(-c3cccnc3)cc(C(=O)CC)c2[nH]1` [Compound I-19], for which the MIC in the test with S. aureus and in the test with S. pneumoniae was not above 0.5 µg/mL each time. With `CCNC(=O)Nc1nc2cc(-c3cccnc3)cc(C(=O)OCC)c2[nH]1` [Compound I-34], the MIC with S. aureus and in the test with S. pneumoniae was not above 0.5 µg/mL throughout.

As for `CCNC(=O)Nc1nc2cc(-c3cccnc3)cc(C(=O)OC(C)C)c2[nH]1` [Compound I-33], the MIC against S. aureus and with S. pneumoniae was not above 0.5 µg/mL throughout. For `CCNC(=O)Nc1nc2cc(-c3cccnc3)cc(C(=O)C3CCCC3)c2[nH]1` [Compound I-28], the MIC with S. aureus and with S. pneumoniae was not above 0.5 µg/mL throughout. Consider `CCNC(=O)Nc1nc2cc(-c3cccnc3)cc(/C(CC)=N/OC)c2[nH]1` [Compound I-38], for which the MIC against S. aureus and in the test with S. pneumoniae was not above 0.5 µg/mL throughout. Take `CCNC(=O)Nc1nc2cc(-c3cccnc3)cc(C(=O)c3nccn3CC)c2[nH]1` [Compound I-29]: the MIC in the test with S. aureus and against S. pneumoniae was not above 0.5 µg/mL each time. As for `CCNC(=O)Nc1nc2cc(-c3ccn(C)c(=O)c3)c(F)c(C(=O)NC)c2[nH]1` [Compound I-36], the MIC against S. aureus was more than 1 µg/mL; against S. pneumoniae it was not above 0.5 µg/mL. For the compound `CCNC(=O)Nc1nc2cc(-c3cccnc3)c(F)c(C(=O)NC)c2[nH]1` [Compound I-6], in the test with S. aureus, the MIC is 0.5 to 1 µg/mL (≈ 1.4 to 2.81 µM). Consider `CCNC(=O)Nc1nc2cc(-c3cccnc3)c(F)c(C(=O)OC)c2[nH]1` [Compound I-3], for which the MIC against S. aureus is not above 0.5 µg/mL.

Turning to `CCNC(=O)Nc1nc2cc(-c3cccnc3)cc(C(=O)c3cn(C)cn3)c2[nH]1` [Compound I-30], the values for the MIC against S. aureus and against S. pneumoniae were more than 1 µg/mL and not above 0.5 µg/mL, respectively. Consider `CCC/C(=N\OC)c1cc(-c2cccnc2)cc2nc(NC(=O)NCC)[nH]c12` [Compound I-39], for which the MIC in the test on S. aureus and in the test with S. pneumoniae was not above 0.5 µg/mL each time. Consider `CCNC(=O)Nc1nc2cc(-c3cccnc3)cc(C(=O)C(C)CC)c2[nH]1` (centres unmarked) [Compound I-21], for which the MIC with S. aureus and with S. pneumoniae was not above 0.5 µg/mL throughout. As for `CCNC(=O)Nc1nc2cc(-c3cncnc3)cc(C(=O)CC)c2[nH]1` [Compound I-23], the MIC against S. aureus and in the test on S. pneumoniae was not above 0.5 µg/mL each time. Regarding `CCNC(=O)Nc1nc2cc(-c3cccnc3)cc(/C(=N/OC)C3CC3)c2[nH]1` [Compound I-40, 1-[4-(Cyclopropyl-methoxyimino-methyl)-6-pyridin-3-yl-1H-benzoimidazol-2-yl]-3-ethyl-urea], the MIC with S. aureus and in the test with S. pneumoniae was not above 0.5 µg/mL in each case.

For `CCNC(=O)Nc1nc2cc(-c3cccnc3)cc(C(=O)CCc3ccccn3)c2[nH]1` [Compound I-31], the MIC against S. aureus and in the test on S. pneumoniae was not above 0.5 µg/mL in each case. `CCNC(=O)Nc1nc2cc(-c3cccnc3)cc(C(=O)NCCO)c2[nH]1` [Compound I-13]: in the test on S. aureus, the MIC is more than 1 µg/mL. In the case of `CCNC(=O)Nc1nc2cc(-c3cncnc3)cc(C(=O)NC)c2[nH]1` [Compound I-7], the MIC in the test on S. aureus was more than 1 µg/mL.

Take `CCNC(=O)Nc1nc2cc(-c3cccnc3)cc(C(=O)CCCCO)c2[nH]1` [Compound I-37]: the MIC is 0.5 to 1 µg/mL (≈ 1.31 to 2.62 µM) with S. aureus and not above 0.5 µg/mL against S. pneumoniae.

As to `CCNC(=O)Nc1nc2cc(-c3ccn(C)c(=O)c3)c(F)c(C(=O)OC)c2[nH]1` [Compound I-35], the MIC in the test with S. aureus and in the test on S. pneumoniae was not above 0.5 µg/mL in each case.

Consider `CCNC(=O)Nc1nc2cc(-c3cccnc3)cc(C(=O)Nc3cc(C)[nH]n3)c2[nH]1` [Compound I-15], for which the MIC against S. aureus is more than 1 µg/mL.

Take `CCNC(=O)Nc1nc2cc(-c3cccnc3)cc(C(=O)CC(C)C)c2[nH]1` [Compound I-24]: the MIC with S. aureus and against S. pneumoniae was not above 0.5 µg/mL in each case. Regarding `CCNC(=O)Nc1nc2cc(-c3cccnc3)cc(C(C)=O)c2[nH]1` [Compound I-18], the MIC against S. aureus and against S. pneumoniae was not above 0.5 µg/mL each time.

Source of the values: US8426426B2, “Gyrase inhibitors and uses thereof” (Vertex Pharmaceuticals Incorporated, priority 2002, dated 2013).
